In one assay the test system is GABARAP. The experiment in a line: ITC binding to GABARAP. On the set-up: species or system human. Particulars: for selectivity towards GABARAP proteins (in words): GABARAP versus LC3, FIGS. 2E and 4C.
Assay [1] relates to LC3-positive puncta in COS7 cells. The experiment in a line: LC3-positive puncta in starved COS7 cells. Type of assay: cell-based. Particulars: COS7 cells over-expressing mCherry-tagged peptide, nutrients deprivation. An excerpt: (§1) We used the well-established cultured COS7 cells for assessing autophagy inhibitions by the AnkB/G LIR peptides over-expressed in the cells. We quantified the numbers of endogenous LC3- or GABARAP-positive puncta, which represent LC3 or GABARAP-containing autophagic structures, as readouts to quantify autophagy inhibitions (Klionsky et al., 2016; Mizushima et al., 2010). After nutrients deprivation, obvious accumulations of LC3- or GABARAP-positive puncta could be observed in cells over-expressing mCherry only, indicating induction of autophagy by starvation (FIG. 6C6&E6). […] In contrast, expression of the mCherry-AnkB WR peptide had no impact on the LC3- or GABARAP-puncta numbers (i.e. with the same puncta numbers as expressing the mCherry vector control; FIG. 6C-F).

For a further assay, the target named is LGG-1 (Caenorhabditis elegans, UniProt Q09490). The assay is described as follows: ITC binding to purified LGG-1. On the set-up: species or system C. elegans. An excerpt: (§2) C. elegans provides an ideal platform to study autophagy and especially to investigate roles of different members of Atg8 in autophagy, because worms contain both GABARAP and LC3 subfamily Atg8s and yet simple enough with one gene for each subfamily (worm lgg-1 and lgg-2 are […] of GABARAP and LC3, respectively). It has also been shown earlier on that lgg-1 and lgg-2 act non-redundantly in autophagy (Wu et al., 2015). Prior to performing autophagy assays in worms, we measured the bindings of various AnkB/G LIR peptides to purified LGG-1 and LGG-2 using the same method as we have described for FIGS. 1&3.

The test system of assay [2] is p62-positive puncta in COS7 cells. The experiment in a line: p62-positive puncta in starved COS7 cells. Type of assay: cell-based. The conditions noted are these: COS7 cells expressing mCherry-tagged peptide, starvation. An excerpt:
We further quantified the level of p62, one of the best studied selective autophagy substrates, to monitor the autophagic flux in COS7 cells expressing various AnkB/G LIR peptides under the starvation condition (Klionsky et al., 2016; Mizushima et al., 2010). Upon autophagy induction, p62 forms aggregates via its LIR motif-mediated interactions to Atg8s and subsequent incorporation into autophagosomes (Bjorkoy et al., 2005; Pankiv et al., 2007). Only a relatively low and steady level of p62 aggregates is formed if autophagy flux is normal (i.e. p62-positive autophagosomes are steadily cleared by fusing with lysosomes; (Bjorkoy et al., 2005)), and this is indeed the case when cells were expressed with the mCherry vector control (FIG. 7F). […] This is consistent with a previous siRNA-based study showing that knockdown of LC3 but not GABARAP causes p62 accumulation in COS7 cells (Maruyama et al., 2014). Taken together, the above cell-based assays reinforce our earlier conclusion derived from biochemical and structural studies, that the AnkB WT peptide can function as potent autophagy inhibitor by targeting all members of the Atg8 family and the AnkG WT or ER peptides can selectively target the GABARAPs and spare the LC3s.

A further assay concerns the target T1, LGG-2 (Caenorhabditis elegans, UniProt Q23536).
T1 sequence (Q23536 1-130): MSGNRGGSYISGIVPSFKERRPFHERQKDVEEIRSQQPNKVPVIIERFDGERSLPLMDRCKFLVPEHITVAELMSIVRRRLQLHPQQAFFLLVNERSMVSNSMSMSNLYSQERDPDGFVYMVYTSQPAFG
The experiment in a line: ITC binding to purified LGG-2. Set-up: species or system C. elegans.
From the text: as §2

The next assay concerns SQST-1::GFP. The experiment in a line: SQST-1::GFP aggregate accumulation in C. elegans expressing the peptides. Format: in vivo. An excerpt: We next determined whether the AnkB WT peptide blocks autophagy in C. elegans. Autophagy is required for degradation of a variety of protein substrates, including the C. elegans p62 homolog SQST-1 during development (Tian et al., 2010). In the wild type animals, SQST-1::GFP is weakly expressed and diffusely localized in the cytoplasm, while numerous SQST-1 aggregates accumulate in autophagy mutants (Tian et al., 2010). The AnkB WT peptide fused with the Cherry reporter (Cherry::AnkB WT) or Cherry::AnkB WR was expressed under the control of the nfya-1 promoter, which is expressed ubiquitously from the embryonic to adult stages. The expression plasmids were injected into animals carrying integrated SQST-1::GFP reporter (bpIs151) and transgenic lines were obtained and analyzed.
Similarly, we also tested the blocking effect of AnkG peptides in C. elegans. […] This observation is somewhat different from that in mammalian heterologous cells. This may be explained by the different roles of the two families in different organisms. In mammal, p62 degradation is dependent on LC3 but not GABARAP (Maruyama et al., 2014), so blocking GABARAP binding has minimal effect on p62 degradation. However, in C. elegans, LGG-1 acts upstream to LGG-2 (Manil-Segalen et al., 2014; Wu et al., 2015), so blocking either of them will lead to defect in SQST-1 degradation.
Although a large collection of autophagy mutants were isolated from genetic screens (Tian et al., 2010), assays to inhibit autophagy activity in a spatiotemporal manner are not available. We investigated whether the AnkB peptide can block autophagy in a tissue- and temporal-specific manner. The AnkB peptide was expressed under the control of tissue-specific promoters, including the promoter of myo-3 for body wall muscle cells, y37A1B.5 for hypodermal cells and vha-6 for intestinal cells. The expression constructs were injected into animals carrying the corresponding tissue-specific SQST-1::GFP expression integrated lines.
We also examined whether the AnkB peptide can impair autophagy in a temporal control manner. The expression of AnkB WT was driven by the promoter of col-19, which is expressed in hypodermal cells from the young adult stage onwards.

The subject of assay [3] is GABARAP-positive puncta in COS7 cells. The assay is described as follows: GABARAP-positive puncta in starved COS7 cells. Type of assay: cell-based. Particulars: COS7 cells over-expressing mCherry-tagged peptide, nutrients deprivation.
From the text: as §1

For assay [4], the system named is C. elegans. The experiment in a line: C. elegans life span. Type of assay: in vivo. An excerpt: Autophagy is known to regulate the adult worm aging process. […] The autophagy defect caused by AnkB was weaker than that in autophagy mutants.
Assay [5] deals with C. elegans. The assay is described as follows: C. elegans hatching and development. Format: in vivo. Particulars: Pnfya-1::Cherry fusion. An excerpt: Autophagy plays critical roles in various physiological processes occurring during development or in adult C. elegans (Zhang et al., 2015). Fewer autophagy mutants develop into larvae. […] 60.8% embryos expressing the AnkB WT peptide hatched, compared to 96.9% of embryos expressing AnkB WR (FIG. 8G). Autophagy mutants also grow slowly. […] Thus, the AnkB WT peptide blocks autophagy during C. elegans development.

“Also recorded” adds a separate entry of the source.

Sequence of LGG-1 (Q09490 1-116 limits assumed): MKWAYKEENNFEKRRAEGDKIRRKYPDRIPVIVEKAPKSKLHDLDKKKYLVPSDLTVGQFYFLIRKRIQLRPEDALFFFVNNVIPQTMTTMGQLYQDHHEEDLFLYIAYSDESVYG

With “AnkG LIR C-helix alone: AnkG LIR C-helix alone (aa 1993-2010) (SSEEIREARQQAAASQSP; UniProt Q12955 1993-2010, looked up, fragment)”, the “binding to GABARAP (in words)” value in the assay on GABARAP (ITC) was “no detectable binding”.
As for “E1599R modification of AnkB: AnkB LIR peptide with E1599R modification (VEEEWVIVSDERIEEARQKAPLEITEY; AnkB E1599R human recombinant peptide, prepared in the lab)”, the “selectivity towards GABARAP proteins (in words)” value in the assay with GABARAP is recorded as “increase in selectivity towards GABARAP proteins”.
On the same count and under the same terms, in the case of “E1996R modification of AnkG: AnkG LIR peptide with E1996R modification (PEDDWTEFSSERIREARQAAASHAPS; AnkG E1996R rat recombinant peptide, prepared in the lab)” it was “increase in selectivity towards GABARAP proteins”.
Turning to “PEDDWTRFSSEEIREARQAAASHAPS (AnkG E1991R rat recombinant peptide, prepared in the lab) [modified from rat 480 kD AnkG residues 1985-2010]”, the LC3-positive puncta number entry in assay [1] was “essentially no impact”. Further, the “binding to LGG-1 (in words)” value in the assay with LGG-1 is “retained strong binding”. Besides, in assay [2], the “p62-positive puncta versus mCherry vector control” value was “no statistically significant increase”. Moreover, the “weaker affinity towards LGG-2 than LGG-1” value with LGG-2 was ~1,000 fold. Also, the “selectivity towards GABARAP proteins (in words)” value in the assay with GABARAP was “increase in selectivity towards GABARAP proteins”. The “binding to GABARAP (in words)” value in the assay on GABARAP (ITC) is “slightly weaker affinity”. In addition, the “SQST-1::GFP aggregates” value with SQST-1::GFP (Cherry fusion, hyp7 promoter, epidermis, embryonic to adult stages) is listed as “caused accumulation of SQST-1::GFP aggregates”; with SQST-1::GFP (Phyp7::mCherry::AnkG peptides, hypodermis, L4 larvae), “a large number of SQST-1::GFP aggregates accumulate”; in the assay on SQST-1::GFP (mCherry::AnkG peptides, embryonic stage (FIG. 10B-D)), “accumulation of SQST-1::GFP aggregates”. Besides, the GABARAP-positive puncta number entry in assay [3] is reported as “potently inhibited”.
In the case of “VEEEWVIVSDEEIEEARQKAPLEITEY [AnkB LIR, recombinant peptide from natural human 440 kD AnkB residues 1588-1614]”, the LC3-positive puncta number result in assay [1] is “reduced the LC3- and GABARAP-puncta to the background level”. Moreover, the “binding to LGG-1 (in words)” value on LGG-1 was “binds very strongly”. Besides, the Median lifespan in the assay with C. elegans [4] (Pmyo-3::ch:: fusion (muscle)) turned out to be 18.12 days; in the assay on C. elegans [4] (Pnfya-1::ch:: fusion (ubiquitous)), 16.32 days; with C. elegans [4] (Pvha-6::ch:: fusion (intestine)) it was 18.87 days; in the assay on C. elegans [4] (Py37a1b.5::ch:: fusion (hypodermal cells)) it was 16.64 days. Further, the “life span compared to animals expressing Cherry::AnkB WR” value in the assay with C. elegans [4] (Pnfya-1::Cherry fusion) is “dramatically shortened the life span”; in the assay with C. elegans [4] (expressed in muscle cells and intestinal cells), “did not significantly reduce the life span”. The mean life span result in the assay on C. elegans [4] (expressed in hypodermal cells) is “slightly reduced the mean life span”. In addition, the “p62-positive puncta versus mCherry vector control” value in [2] was “dramatically increased”. For the same substance, the “binding to LGG-2 (in words)” value at LGG-2 (purified LGG-2) is recorded as “binds very strongly”. Moreover, in the assay on GABARAP (ITC), the “affinity to GABARAP higher than AnkG LIR” value is “about 10 fold”. The “SQST-1::GFP aggregates” value is reported as “a large number of SQST-1::GFP aggregates accumulated” with SQST-1::GFP (Cherry fusion, FIG. 8, embryo); “a large number of SQST-1::GFP aggregates” in the assay on SQST-1::GFP (Cherry fusion, FIG. 8, larvae); “accumulated a large number of SQST-1::GFP aggregates” in the assay with SQST-1::GFP (Cherry fusion, nfya-1 promoter (ubiquitous), multiple tissues, embryonic to adult stages); “adult-specific accumulation of SQST-1::GFP aggregates” with SQST-1::GFP (col-19 promoter (hypodermal cells from young adult stage onwards), adult); “no aggregates were found; also recorded: no SQST-1::GFP aggregates” with SQST-1::GFP (col-19 promoter, embryonic to L4 larval stages (no peptide expression yet), listed as AnkB WT); “a large number of SQST-1::GFP aggregates accumulate” in the assay on SQST-1::GFP (mCherry fusion, hypodermal cells, embryo (FIG. 9)). Besides, the “SQST-1::GFP aggregates” value is reported as “a large number of SQST-1::GFP aggregates accumulate” in the assay on SQST-1::GFP (mCherry fusion, hypodermis, L4 larvae (FIG. 9)); “SQST-1::GFP aggregates accumulate” with SQST-1::GFP (myo-3 promoter, muscle cells, L4 larvae); “a large number of SQST-1::GFP aggregates accumulate” in the assay on SQST-1::GFP (myo-3 promoter, muscle, embryo); “a large number of SQST-1::GFP aggregates accumulated” in the assay with SQST-1::GFP (tissue-specific promoters myo-3, y37A1B.5, vha-6, embryonic to adult stages); “SQST-1::GFP aggregates accumulate” with SQST-1::GFP (vha-6 promoter, intestine cells, embryo); “SQST-1::GFP aggregates accumulate” in the assay on SQST-1::GFP (vha-6 promoter, intestine cells, larvae (FIG. 10S, 10T)). Further, the “dependence of SQST-1::GFP aggregates on peptide expression level” value in the assay with SQST-1::GFP (myo-3 promoter, muscle cells, L4 larvae (FIG. 10W-Y), listed as AnkB WT) is listed as “correlate with the degree of autophagy inhibition; also recorded: increases with increasing expression”. For the same substance, the GABARAP-positive puncta number result in assay [3] was “reduced the LC3- and GABARAP-puncta to the background level”. In addition, in the assay on C. elegans [5], the “additional time for embryos to develop into L1 larvae compared to AnkB WR” value was “approximately two more hours”. Further, in the assay on C. elegans [5], the “additional time to develop into young adults compared to AnkB WR” value is around 6 h. Moreover, the “embryos hatched (hatch rate)” value with C. elegans [5] was 60.8%.
